Consider 19 compounds from patent publication US11072585B2 (PharmAkea, Inc., priority 2015, dated 2021).

In one experiment the target is human LOXL2 (Homo sapiens (Human), UniProt Q9Y4K0). Nature of the experiment: Human LOXL2 amine oxidase activity assay (Amplex Red). Format: biochemical. To be noted: concentrated conditioned media from CHO cells stably expressing human LOXL2; 2 h at 37° C. with compound; DAP substrate. In outline:
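Concentrated conditioned medium from CHO cells stably expressing human LOXL2 was preincubated with compound for 2 h at 37 °C in 50 mM borate, pH 8. 1,5-diaminopentane substrate and Amplex Red/HRP were then added. Fluorescence (544/590) was read kinetically every 2 min for 1 h, with activity taken from the linear slope.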

In experiment [1] the test system is bleomycin-induced lung fibrosis in C57Bl/6 male mice. In words: Mouse oropharyngeal bleomycin model of lung fibrosis. The note with it: for efficacy in bleomycin lung fibrosis model, prophylactic dosing: dosed prophylactically at 60 mg/kg p.o.; for efficacy in bleomycin lung fibrosis model, therapeutic dosing: dosed therapeutically at 60 mg/kg p.o. Format: in vivo. The method, then:
Example B-3: Mouse Oropharyngeal Bleomycin Model of Lung Fibrosis
Lung fibrosis is induced in C57Bl/6 male mice by administering bleomycin (0.1-4 U/kg) via oropharyngeal instillation. Mice are either pretreated with vehicle or test compound (1 day to 1 hour) orally, intraperitoneally, intravenously or subcutaneously before bleomycin installation (prophylactic dosing) or 7-14 days post bleomycin instillation (therapeutic dosing). The route and frequency of dosing are based on previously determined pharmacokinetic properties for the LOXL2 inhibitor in mouse. After bleomycin instillation animals are monitored daily for weight loss and clinical signs for 14-28 days prior to sacrifice. Animals are euthanized at study termination and weighed and blood (for isolation of plasma) and bronchoalveolar lavage are collected and frozen for subsequent analyses. Lungs are removed, weighed, then either inflated and fixed by instillation of 10% formalin and prepared for histological examination or homogenized in 1 ml PBS for collagen determination using a hydroxyproline assay. For histological examination, lung slices are stained with Masson's trichrome or Picro-Sirius red to measure cross-linked collagen as an indicator of fibrosis and an Ashcroft score of lung fibrotic and inflammatory damage determined. In addition, immunohistochemistry of fibrotic proteins such as a-smooth muscle actin can be recorded. For lung hydroxyproline content, 0.5 ml of the lung homogenate is removed and added to 0.5 ml 12 N HCl and the samples heated at 120° C. overnight. After the acid hydrolysis, 25-100 μl of the supernatant is dried down, resuspended in 25 μl water and the hydroxyproline content determined by the addition of 0.5 ml Chloramine T solution (140 mg Chloramine T in 6.5 ml ddH2O+1 ml n-propanol+2.5 ml 1M sodium acetate) and incubation at room temperature for 20 min. After the incubation, 0.5 ml Erlich's solution (1.48 g of 4-(dimethylamino(benzaldehyde) in 7 ml n-propanol+2.88 ml 60% perchloric acid and 0.12 ml ddH2O) is added and incubated at 65° C. for 15 min before reading the absorbance at 550 nm. The concentration of hydroxyproline in each […] is determined from a hydroxyproline (purchased from Sigma) standard curve.

For experiment [2], the system named is kidney fibrosis in Col4A3 deficient mice. Nature of the experiment: Mouse Alport model of kidney fibrosis. Type of experiment: in vivo. The note with it: dosed prophylactically at 30 mg/kg p.o. How it is done: Example B-7: Mouse Alport Model of Kidney Fibrosis
Mice with mutations in one of the genes of glomerular basement membrane collagen, Collagen IV-a3/a4/a5, have defects in glomerular function with development of kidney fibrosis These mice develop renal dysfunction and die prematurely of renal failure with specific timing dependent on the strain background upon which the mutation is present. LOXL2 inhibitors are administered orally to Col4A3 deficient mice on a SV129 background either prophylactically (ca. weeks 2-3 of age) or therapeutically (ca. weeks 4-6 wks of age). Mice are either sacrificed at a predefined time (7-9 wks of age) or continually dosed until they lose >15% of their body weight which preceeds death by 1-3 days. If specifically terminated, mice are perfused transcardially with PBS, and one kidney clamped at the renal artery and the other perfused with Dynabeads for magnetic isolation of glomeruli. […] RNA from glomeruli and renal cortex is analyzed by real time RT-PCR for genes of interest including MMP-10, MMP-12, IL6, MCP-1, TGF-b1, CTGF, MMP-2, and MMP-9. […] Collagen 1 staining is blindly analyzed for fibrosis scoring, and fibronectin staining is blindly analyzed for glomerulosclerosis scoring. For all studies albuminuria is assessed weekly and BUN at the time of tissue harvest.

A word on the IC50: it is the concentration at which inhibition is half-maximal.

Counter-ions that a name gives are not always drawn.

human LOXL2, sequence (Q9Y4K0 26-774): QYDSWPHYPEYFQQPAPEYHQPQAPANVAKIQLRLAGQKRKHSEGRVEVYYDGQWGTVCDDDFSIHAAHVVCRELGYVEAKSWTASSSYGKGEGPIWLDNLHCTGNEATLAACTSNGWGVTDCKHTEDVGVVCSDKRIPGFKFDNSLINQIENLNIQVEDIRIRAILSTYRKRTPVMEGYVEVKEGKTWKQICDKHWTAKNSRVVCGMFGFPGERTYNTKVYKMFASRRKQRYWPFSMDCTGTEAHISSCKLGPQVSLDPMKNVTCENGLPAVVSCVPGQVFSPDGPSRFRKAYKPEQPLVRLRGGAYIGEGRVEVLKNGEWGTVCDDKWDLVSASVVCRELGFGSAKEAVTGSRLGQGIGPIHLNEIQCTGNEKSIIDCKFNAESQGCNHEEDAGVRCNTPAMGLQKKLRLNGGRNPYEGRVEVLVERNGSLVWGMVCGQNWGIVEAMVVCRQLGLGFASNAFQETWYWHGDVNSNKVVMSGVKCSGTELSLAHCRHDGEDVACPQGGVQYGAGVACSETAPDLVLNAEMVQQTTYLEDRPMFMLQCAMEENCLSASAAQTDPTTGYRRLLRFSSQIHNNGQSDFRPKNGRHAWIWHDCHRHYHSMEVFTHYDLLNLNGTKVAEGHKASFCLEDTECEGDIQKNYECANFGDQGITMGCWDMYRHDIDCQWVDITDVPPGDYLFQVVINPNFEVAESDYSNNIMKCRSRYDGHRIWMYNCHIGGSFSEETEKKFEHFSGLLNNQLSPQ

For `Cl.NCc1cc(Oc2cccc(C(=O)N3C[C@@H](O)[C@H](F)C3)c2)nc(C(F)(F)F)c1` (stereo in doubt) [Compound 1-19, Racemic-trans-(3-((4-(aminomethyl)-6-(trifluoromethyl)pyridin-2-yl)oxy)phenyl)(3-fluoro-4-hydroxypyrrolidin-1-yl)methanone hydrochloride], the IC50 at human LOXL2 was less than 0.3 µM. Moreover, in experiment [1], the “efficacy in bleomycin lung fibrosis model, prophylactic dosing” value was “efficacious” and the “efficacy in bleomycin lung fibrosis model, therapeutic dosing” value (“efficacy … therapeutic dosing” below) is listed as “efficacious”.

In the case of `CS(=O)(=O)CCNC(=O)c1cccc(Oc2cc(CN)cc(C(F)(F)F)n2)c1.Cl` [Compound 1-30, 3-((4-(Aminomethyl)-6-(trifluoromethyl)pyridin-2-yl)oxy)-N-(2-(methylsulfonyl)ethyl)benzamide hydrochloride], the IC50 at human LOXL2 is less than 0.3 µM. Further, in experiment [1], the “efficacy in bleomycin lung fibrosis model, prophylactic dosing” value is “efficacious”.

Turning to `Cl.NCc1cc(Oc2cccc(C(=O)N3C[C@H](O)[C@@H](F)C3)c2)nc(C(F)(F)F)c1` (stereo in doubt) [Compound 1-20, (S,S)-trans-(3-((4-(Aminomethyl)-6-(trifluoromethyl)pyridin-2-yl)oxy)phenyl)(3-fluoro-4-hydroxypyrrolidin-1-yl)methanone hydrochloride], the IC50 at human LOXL2 was less than 0.3 µM. Also, in experiment [1], the “efficacy in bleomycin lung fibrosis model, prophylactic dosing” value was “efficacious” and the “efficacy … therapeutic dosing” value is reported as “efficacious”.

Regarding `Cl.NCc1cc(Oc2cccc(C(=O)NCCn3cnnn3)c2)nc(C(F)(F)F)c1` [Compound 1-15, N-(2-(1H-Tetrazol-1-yl)ethyl)-3-((4-(aminomethyl)-6-(trifluoromethyl)pyridin-2-yl)oxy)benzamide hydrochloride], at human LOXL2, the half-maximal inhibitory concentration (IC50) is less than 0.3 µM. Moreover, the “efficacy in bleomycin lung fibrosis model, prophylactic dosing” value in experiment [1] is recorded as “efficacious”.

Turning to `Cl.NCc1cc(Oc2cccc3c2CCC(=O)N3)nc(C(F)(F)F)c1` [Compound 1-59, 5-((4-(Aminomethyl)-6-(trifluoromethyl)pyridin-2-yl)oxy)-3,4-dihydroquinolin-2(1H)-one hydrochloride], at human LOXL2, the IC50 was less than 0.3 µM. Moreover, the “efficacy in bleomycin lung fibrosis model, prophylactic dosing” value in experiment [1] is reported as “efficacious”.

On to `Cl.NCc1cc(Oc2cccc(C(=O)N3C[C@@H](O)[C@H](F)C3)c2)nc(C(F)(F)F)c1` (stereo in doubt) [Compound 1-21, (R,R)-trans-(3-((4-(Aminomethyl)-6-(trifluoromethyl)pyridin-2-yl)oxy)phenyl)(3-fluoro-4-hydroxypyrrolidin-1-yl)methanone hydrochloride], for which, in experiment [2], the “efficacy in Alport kidney fibrosis model, prophylactic dosing” value is “efficacious”. The IC50 at human LOXL2 was less than 0.3 µM. Moreover, in experiment [1], the “efficacy in bleomycin lung fibrosis model, prophylactic dosing” value is reported as “efficacious” and the “efficacy … therapeutic dosing” value is on record as “efficacious”.

In the case of `Cl.NCc1cc(Oc2cccc(C(=O)Nc3ccccc3)c2)nc(C(F)(F)F)c1` [Compound 1-7, 3-((4-(Aminomethyl)-6-(trifluoromethyl)pyridin-2-yl)oxy)-N-phenylbenzamide hydrochloride], at human LOXL2, the IC50 is less than 0.3 µM. Further, the “efficacy in bleomycin lung fibrosis model, prophylactic dosing” value in experiment [1] is recorded as “efficacious”.

Take `COCC1CN(C(=O)c2cccc(Oc3cc(CN)cc(C(F)(F)F)n3)c2)C1` [Compound 1-206, (3-((4-(Aminomethyl)-6-(trifluoromethyl)pyridin-2-yl)oxy)phenyl)(3-(methoxymethyl)azetidin-1-yl)methanone hydrochloride]: the IC50 at human LOXL2 was less than 0.3 µM.

For the compound `NCc1cc(Oc2cccc(C(=O)NO)c2)nc(C(F)(F)F)c1` [Compound 1-218, 3-((4-(Aminomethyl)-6-(trifluoromethyl)pyridin-2-yl)oxy)-N-hydroxybenzamide hydrochloride], the IC50 at human LOXL2 fell in the range of 0.3 to 1 µM.

Regarding `NCc1cc(Oc2cccc(C(=O)NCCn3cncn3)c2)nc(C(F)(F)F)c1` [Compound 1-14, N-(2-(1H-1,2,4-Triazol-1-yl)ethyl)-3-((4-(aminomethyl)-6-(trifluoromethyl)pyridin-2-yl)oxy)benzamide hydrochloride], the IC50 on human LOXL2 is less than 0.3 µM.

In the case of `NCc1cc(Oc2cccc(C(=O)NCCS(N)(=O)=O)c2)nc(C(F)(F)F)c1` [Compound 1-34, 3-((4-(Aminomethyl)-6-(trifluoromethyl)pyridin-2-yl)oxy)-N-(2-sulfamoylethyl)benzamide hydrochloride], the IC50 on human LOXL2 is less than 0.3 µM.

Turning to `CCc1cccc(NC(=O)c2cccc(Oc3cc(CN)cc(C(F)(F)F)n3)c2)c1` [Compound 1-245, 3-((4-(Aminomethyl)-6-(trifluoromethyl)pyridin-2-yl)oxy)-N-(3-ethylphenyl)benzamide hydrochloride], the 50% inhibitory concentration (IC50) on human LOXL2 is less than 0.3 µM.

With `NCc1cc(Oc2cccc(C(=O)N3CC[C@@H](CO)C3)c2)nc(C(F)(F)F)c1` [Compound 1-26, (R)-(3-((4-(Aminomethyl)-6-(trifluoromethyl)pyridin-2-yl)oxy)phenyl)(3-(hydroxymethyl)pyrrolidin-1-yl)methanone hydrochloride], the IC50 at human LOXL2 is less than 0.3 µM.

Turning to `N#CCCNC(=O)c1cccc(Oc2cc(CN)cc(C(F)(F)F)n2)c1` [Compound 1-198, 3-((4-(Aminomethyl)-6-(trifluoromethyl)pyridin-2-yl)oxy)-N-(2-cyanoethyl)benzamide hydrochloride], on human LOXL2, the IC50 is less than 0.3 µM.

For the compound `NCc1cc(Oc2cccc(Nc3ccccc3)c2)nc(C(F)(F)F)c1` [Compound 1-5, 3-((4-(Aminomethyl)-6-(trifluoromethyl)pyridin-2-yl)oxy)-N-phenylaniline], at human LOXL2, the half-inhibitory concentration (IC50) is less than 0.3 µM.

Take `NCc1cc(Oc2cccc(C(=O)NC3COC3)c2)nc(C(F)(F)F)c1` [Compound 1-200, 3-((4-(Aminomethyl)-6-(trifluoromethyl)pyridin-2-yl)oxy)-N-(oxetan-3-yl)benzamide trifluoroacetate]: on human LOXL2, the IC50 is less than 0.3 µM.

`NCc1cc(OCC2CCN(C(=O)Nc3ccccc3)CC2)nc(C(F)(F)F)c1` [Compound 1-42, 4-(((4-(Aminomethyl)-6-(trifluoromethyl)pyridin-2-yl)oxy)methyl)-N-phenylpiperidine-1-carboxamide trifluoroacetate]: the IC50 on human LOXL2 is less than 0.3 µM.

On to `NCc1cc(Oc2cccc(C(=O)N3CC=CC3)c2)nc(C(F)(F)F)c1` [Compound 1-215, (3-((4-(Aminomethyl)-6-(trifluoromethyl)pyridin-2-yl)oxy)phenyl)(2,5-dihydro-1H-pyrrol-1-yl)methanone hydrochloride], for which the IC50 on human LOXL2 was less than 0.3 µM.

Consider `N=C(N)NC(=O)Cn1ccc2c(Oc3cc(CN)cc(C(F)(F)F)n3)cccc21` [Compound 1-234, 2-(4-((4-(Aminomethyl)-6-(trifluoromethyl)pyridin-2-yl)oxy)-1H-indol-1-yl)-N-carbamimidoylacetamide dihydrochloride], for which the IC50 on human LOXL2 is more than 1 µM.
